The source of these data is PubChem BioAssay (NCI).

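These data come from cells grown in 96-well plates and exposed to compound for 48 hours at five concentrations. At the GI50, growth is halved. TGI marks complete inhibition of growth.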

Some test systems named below: HOP-18 NSCLC; DLD-1 colon; P388 leukemia; SNB-78 CNS; LXFL 529 NSCLC; RXF-631 renal.
Holding throughout (assay): NCI tumour cell line growth inhibition, 48 h

Take `COc1ccc(CC(N)=O)cc1OC`: the TGI in the assay with HOP-18 NSCLC, in the assay on DLD-1 colon, in the assay on P388 leukemia and in the assay with SNB-78 CNS was above 1250 µM in each case.

In the case of `C=C(CN(C)C)C(=O)c1ccc(C(=O)C(=C)CN(C)C)cc1`, the TGI in the assay with HOP-18 NSCLC, with LXFL 529 NSCLC and with DLD-1 colon was above 100 µM each time.

As to `O=C1NC(O)CCN1C1OC(CO)C(O)C1O` (stereo unspecified), the TGI in the assay with HOP-18 NSCLC, in the assay with DLD-1 colon, in the assay on P388 leukemia and in the assay with SNB-78 CNS was above 250 µM throughout.

`COc1cc(C2c3cc4c(cc3[C@@H](Nc3ccccc3)C3COC(=O)[C@H]23)OCO4)cc(OC)c1O` (stereo partly specified): the TGI with HOP-18 NSCLC was 22.6 µM; in the assay on DLD-1 colon, 6.64 µM; in the assay on P388 leukemia, 2.35 µM; in the assay on SNB-78 CNS it was above 91 µM.

Take `O=C(NCCCl)O/N=C/c1cccnc1`: the TGI in the assay with HOP-18 NSCLC, in the assay on DLD-1 colon and with SNB-78 CNS was above 100 µM in each case. For the same compound, the GI50 in the assay with SNB-78 CNS is above 100 µM.

For `CCOC(=O)CNC(=O)NC12CC3CC(CC(C3)C1)C2`, the TGI was 537 µM with HOP-18 NSCLC, above 87.2 µM in the assay on DLD-1 colon, 430 µM with P388 leukemia and above 520 µM with SNB-78 CNS.

Consider `O[C@H]1[C@H](O)[C@@H](O)CN2CC[C@H](O)[C@H]12`, for which the TGI in the assay with HOP-18 NSCLC, with DLD-1 colon, in the assay with P388 leukemia and with SNB-78 CNS was above 100 µM in each case.

As for `CCOC(=O)/C=C1/C(CCCOCc2ccccc2)C2CCCC23CC2(CCN13)OCCO2` (stereo unspecified), the TGI with HOP-18 NSCLC was 50 µM; with LXFL 529 NSCLC it was 90.2 µM; in the assay with DLD-1 colon it was 73.3 µM; in the assay with RXF-631 renal it was 94.6 µM; in the assay on SNB-78 CNS, 85.8 µM.

Take `O=C(NN1C(=O)CS(=O)(=O)C1c1ccc(C(F)(F)F)cc1)c1ccncc1` (stereo unspecified): the TGI in the assay with HOP-18 NSCLC, in the assay on LXFL 529 NSCLC, in the assay with DLD-1 colon and in the assay on SNB-78 CNS was above 100 µM throughout.
